Measurements as given in PubChem BioAssay AID330 (DTP/NCI, 2004).
Values joined by “and” are separate entries in the source; they are usually repeats but may differ in a detail not shown here. Identical values can stand only once. Toxic doses and inconclusive results are not listed. The calls were made as follows: active = survival T/C of 150% or more; inactive = T/C below 125% in these data.

System: P388 leukemia ip, CD2F1 mice, survival T/C
Assay: NCI In Vivo Anticancer Drug Screen. Data for tumor model P388 Leukemia (intraperitoneal) in CD2F1 (CDF1) mice
Conditions: endpoint: median survival time, higher = longer survival
Method in brief: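 Mice carrying the transplanted tumor received test compound or vehicle. Survival was recorded in each group, and the value is the treated-group measurement divided by that of the vehicle-treated control group.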

[1] = dose: 3.13 mg/kg/injection, schedule: Q01DX009 (ip), vehicle: saline with Tween-80
[2] = dose: 6.25 mg/kg/injection, schedule: Q01DX009 (ip), vehicle: saline with Tween-80
[3] = dose: 12.5 mg/kg/injection, schedule: Q01DX009 (ip), vehicle: saline with Tween-80
[4] = dose: 25.0 mg/kg/injection, schedule: Q01DX009 (ip), vehicle: saline with Tween-80
[5] = dose: 50.0 mg/kg/injection, schedule: Q01DX005 (ip), vehicle: Klucel (hydroxypropylcellulose) (HPC)
[6] = dose: 100.0 mg/kg/injection, schedule: Q01DX005 (ip), vehicle: Klucel (hydroxypropylcellulose) (HPC)
[7] = dose: 200.0 mg/kg/injection, schedule: Q01DX005 (ip), vehicle: Klucel (hydroxypropylcellulose) (HPC)
[8] = dose: 100.0 mg/kg/injection, schedule: Q04DX003 (ip), vehicle: saline
[9] = dose: 200.0 mg/kg/injection, schedule: Q04DX003 (ip), vehicle: saline
[10] = dose: 400.0 mg/kg/injection, schedule: Q04DX003 (ip), vehicle: saline
[11] = dose: 50.0 mg/kg/injection, schedule: Q01DX005 (ip), vehicle: saline
[12] = dose: 50.0 mg/kg/injection, schedule: Q01DX009 (ip), vehicle: saline with Tween-80
[13] = dose: 50.0 mg/kg/injection, schedule: Q01DX005 (ip), vehicle: saline with Tween-80
[14] = dose: 100.0 mg/kg/injection, schedule: Q01DX005 (ip), vehicle: saline with Tween-80
[15] = dose: 200.0 mg/kg/injection, schedule: Q01DX005 (ip), vehicle: saline with Tween-80
[16] = dose: 60.0 mg/kg/injection, schedule: Q01DX005 (ip), vehicle: saline with Tween-80
[17] = dose: 120.0 mg/kg/injection, schedule: Q01DX005 (ip), vehicle: saline with Tween-80
[18] = dose: 240.0 mg/kg/injection, schedule: Q01DX005 (ip), vehicle: saline with Tween-80

Measured: T/C

CCCCCCCCCCCC(=O)NO
inactive: [1] 94 % of control | [2] 99 % of control | [3] 101 % of control | [4] 95 % of control

CC1=NN=C(C)C1=Cc1ccccc1[N+](=O)[O-]
inactive: dose: 50.0 mg/kg/injection, schedule: Q01DX009 (ip), vehicle: Klucel (hydroxypropylcellulose) (HPC) 99 % of control | dose: 100.0 mg/kg/injection, schedule: Q01DX009 (ip), vehicle: Klucel (hydroxypropylcellulose) (HPC) 95 % of control | dose: 200.0 mg/kg/injection, schedule: Q01DX009 (ip), vehicle: Klucel (hydroxypropylcellulose) (HPC) 101 % of control

CC(=O)N/N=C1\CCC2CCC1C2 (stereo not drawn)
inactive: [5] 100 % of control | [6] 99 % of control | [7] 96 % of control

CCOC(=O)NC
inactive: [8] 104 % of control | [9] 100 % of control | [10] 104 % of control

C[N+](C)(C)CC(C[N+](C)(C)C)C(=O)c1ccccc1
inactive: dose: 6.25 mg/kg/injection, schedule: Q01DX009 (ip), vehicle: Klucel (hydroxypropylcellulose) (HPC) 107 % of control | dose: 12.5 mg/kg/injection, schedule: Q01DX009 (ip), vehicle: Klucel (hydroxypropylcellulose) (HPC) 108 % of control

O=C(O)CN=C1C=CC(=NCC(=O)O)C=C1
inactive: [5] 109 % of control | [6] 108 % of control

CC(C)C(N)C(=O)NN (stereo not drawn)
inactive: [11] 110 % of control | dose: 100.0 mg/kg/injection, schedule: Q01DX005 (ip), vehicle: saline 105 % of control | dose: 200.0 mg/kg/injection, schedule: Q01DX005 (ip), vehicle: saline 110 % of control

O=C1CC(C(=O)N2Cc3cc4ccccc4nc3C2)CO1 (stereo not drawn)
inactive: [1] 100 % of control and 98 % of control | [2] 99 % of control and 100 % of control and 115 % of control | [3] 106 % of control and 124 % of control and 98 % of control | [4] 100 % of control (2×) and 108 % of control | [12] 100 % of control

CCCCCCN(CCCCCC)CC(O)c1cccc2ccc(Cl)cc12 (stereo not drawn)
inactive: [13] 90 % of control | [14] 95 % of control | [15] 109 % of control

CN(C)CC/C(Br)=C1/c2ccccc2Sc2ccc(Cl)cc21
inactive: [5] 111 % of control | [6] 98 % of control | [7] 93 % of control

O=C(O)C/[N+]([O-])=N\O
inactive: dose: 50.0 mg/kg/injection, schedule: Q01DX009 (ip), vehicle: saline 102 % of control | dose: 100.0 mg/kg/injection, schedule: Q01DX009 (ip), vehicle: saline 102 % of control | [8] 104 % of control | dose: 200.0 mg/kg/injection, schedule: Q01DX009 (ip), vehicle: saline 96 % of control | [9] 105 % of control | dose: 400.0 mg/kg/injection, schedule: Q01DX009 (ip), vehicle: saline 94 % of control | [10] 92 % of control

CCOC(=O)c1sc2nc(C)cc(C)c2c1N
inactive: dose: 6.25 mg/kg/injection, schedule: Q01DX005 (ip), vehicle: saline with Tween-80 95 % of control | dose: 12.5 mg/kg/injection, schedule: Q01DX005 (ip), vehicle: saline with Tween-80 100 % of control | dose: 25.0 mg/kg/injection, schedule: Q01DX005 (ip), vehicle: saline with Tween-80 98 % of control

CC1(C)OC2OC3C(Br)C(=O)OC3C2O1 (stereo not drawn)
inactive: [16] 90 % of control | [17] 94 % of control | [18] 97 % of control

COc1cc(C(=O)C(CN(C)C)CN(C)C)cc(OC)c1OC
inactive: dose: 12.5 mg/kg/injection, schedule: Q01DX005 (ip), vehicle: saline 101 % of control | dose: 25.0 mg/kg/injection, schedule: Q01DX005 (ip), vehicle: saline 100 % of control | [11] 107 % of control and 114 % of control

Cc1cc(=O)n2[nH]c(-c3ccc(C(C)(C)C)cc3)cc2n1
inactive: [16] 111 % of control | [17] 109 % of control | [18] 93 % of control

S=c1cc[nH]c2ccccc12
inactive: dose: 6.25 mg/kg/injection, schedule: Q01DX009 (ip), vehicle: other 104 % of control | dose: 12.5 mg/kg/injection, schedule: Q01DX009 (ip), vehicle: other 104 % of control | dose: 25.0 mg/kg/injection, schedule: Q01DX009 (ip), vehicle: other 96 % of control | dose: 50.0 mg/kg/injection, schedule: Q01DX009 (ip), vehicle: other 112 % of control | dose: 100.0 mg/kg/injection, schedule: Q01DX009 (ip), vehicle: other 110 % of control

O=c1cc(-c2ccccc2)c(N=Nc2ccccc2)c(S)n1-c1ccccc1
inactive: [13] 87 % of control | [14] 88 % of control | [15] 90 % of control

Cc1noc(NS(=O)(=O)c2ccc(N=Nc3cc(N=Nc4ccc(S(=O)(=O)Nc5onc(C)c5C)cc4)c4c(NC(=O)C(Cl)Cl)cccc4c3OC(=O)C(Cl)Cl)cc2)c1C (tested in a mixture with another compound)
inactive: [12] 100 % of control and 106 % of control | dose: 100.0 mg/kg/injection, schedule: Q01DX009 (ip), vehicle: saline with Tween-80 104 % of control and 106 % of control

CCC(C)(C)N=C(NC(=O)C(F)(F)F)Nc1cccnc1
inactive: dose: 100.0 mg/kg/injection, schedule: Q04DX003 (ip), vehicle: saline with Tween-80 93 % of control | dose: 200.0 mg/kg/injection, schedule: Q04DX003 (ip), vehicle: saline with Tween-80 94 % of control

CCSC(C(O)C(O)C(O)C(O)CO)n1cnc2c(=S)nc[nH]c21 (stereo not drawn)
inactive: dose: 25.0 mg/kg/injection, schedule: Q01DX009 (ip), vehicle: water 97 % of control | dose: 50.0 mg/kg/injection, schedule: Q01DX009 (ip), vehicle: water 94 % of control | dose: 100.0 mg/kg/injection, schedule: Q01DX009 (ip), vehicle: water 105 % of control | dose: 200.0 mg/kg/injection, schedule: Q01DX009 (ip), vehicle: water 105 % of control | dose: 400.0 mg/kg/injection, schedule: Q01DX009 (ip), vehicle: water 96 % of control

CS(=O)(=O)c1nnc(-c2cc[n+]([O-])cc2)s1
inactive: dose: 6.25 mg/kg/injection, schedule: Q01DX005 (ip), vehicle: Klucel (hydroxypropylcellulose) (HPC) 114 % of control | dose: 12.5 mg/kg/injection, schedule: Q01DX005 (ip), vehicle: Klucel (hydroxypropylcellulose) (HPC) 114 % of control

NC(CCCCNC(=O)c1ccccc1)C(=O)O (stereo not drawn)
inactive: [13] 101 % of control | [14] 93 % of control | [15] 99 % of control

NC(=O)SCC(=O)Nc1ccc2ncccc2c1
inactive: dose: 100.0 mg/kg/injection, schedule: Q01DX009 (ip), vehicle: saline sonified 100 % of control | dose: 100.0 mg/kg/injection, schedule: Q04DX003 (ip), vehicle: saline sonified 100 % of control | dose: 200.0 mg/kg/injection, schedule: Q01DX009 (ip), vehicle: saline sonified 113 % of control | dose: 200.0 mg/kg/injection, schedule: Q04DX003 (ip), vehicle: saline sonified 100 % of control | dose: 400.0 mg/kg/injection, schedule: Q01DX009 (ip), vehicle: saline sonified 90 % of control | dose: 400.0 mg/kg/injection, schedule: Q04DX003 (ip), vehicle: saline sonified 104 % of control
